Species: Rattus norvegicus
Assay: DrugMatrix - Regimen: Daily Repeat
Type: toxicity, organism-based, Sprague-Dawley
Design: regimen Daily Repeat, gender Male, age 6-8 weeks
Conditions: in vivo, po, route oral GAVAGE, […]; for TOTAL PROTEIN / ALANINE AMINOTRANSFERASE / ALBUMIN / ALKALINE PHOSPHATASE / ASPARTATE AMINOTRANSFERASE / BLOOD UREA NITROGEN / CARBON DIOXIDE / CHLORIDE / CHOLESTEROL / CREATINE PHOSPHOKINASE / CREATININE / GLUCOSE / LACTATE DEHYDROGENASE / LIPASE / PHOSPHORUS / POTASSIUM / SODIUM / TOTAL BILIRUBIN: tissue Plasma; for ABSOLUTE BASOPHIL / ABSOLUTE EOSINOPHIL / ABSOLUTE LYMPHOCYTE / ABSOLUTE MONOCYTE / ABSOLUTE SEGMENTED NEUTROPHIL / BASOPHIL / EOSINOPHIL / ERYTHROCYTE COUNT / HEMATOCRIT / HEMOGLOBIN / LEUKOCYTE COUNT / LYMPHOCYTE / MEAN CORPUSCULAR HEMOGLOBIN / MEAN CORPUSCULAR HEMOGLOBIN CONCENTRATION / MEAN CORPUSCULAR VOLUME / MONOCYTE / NEUTROPHIL / NUCLEATED RED BLOOD CELLS / PLATELET COUNT: tissue Blood
[1] = 40 mg/kg, 120 h, dose level Low, time 5 day
[2] = 90 mg/kg, 72 h, dose level High, time 3 day
[3] = 90 mg/kg, 120 h, dose level High, time 5 day

Structure (SMILES): CN(C)CCCC1(c2ccc(F)cc2)OCc2cc(C#N)ccc21 (stereo not given) [CITALOPRAM]
- TOTAL PROTEIN (40 mg/kg, 72 h, dose level Low, time 3 day): 4.8 G/DL
- ABSOLUTE BASOPHIL [1]: 0 CELLS/uL
- ABSOLUTE EOSINOPHIL [1]: 0 CELLS/uL
- ABSOLUTE LYMPHOCYTE [1]: 8782.67 CELLS/uL
- ABSOLUTE MONOCYTE [1]: 193 CELLS/uL
- ABSOLUTE SEGMENTED NEUTROPHIL [1]: 424.33 CELLS/uL
- BASOPHIL [1]: 0%
- EOSINOPHIL [1]: 0%
- ERYTHROCYTE COUNT [1]: 5.43 x10E6/uL
- HEMATOCRIT [1]: 34.67%
- HEMOGLOBIN [1]: 13.13 G/DL
- LEUKOCYTE COUNT [1]: 9.4 x10E3/uL
- LYMPHOCYTE [1]: 93.67%
- MEAN CORPUSCULAR HEMOGLOBIN [1]: 24.23 pg
- MEAN CORPUSCULAR HEMOGLOBIN CONCENTRATION [1]: 37.87 G/DL
- MEAN CORPUSCULAR VOLUME [1]: 63.9 fL
- MONOCYTE [1]: 2%
- NEUTROPHIL [1]: 4.33%
- NUCLEATED RED BLOOD CELLS [1]: 0 /100WBC
- PLATELET COUNT [1]: 1141.33 x10E3/uL
- ALANINE AMINOTRANSFERASE [1]: 63 u/L
- ALBUMIN [1]: 3.87 G/DL
- ALKALINE PHOSPHATASE [1]: 433.67 u/L
- ASPARTATE AMINOTRANSFERASE [1]: 95 u/L
- BLOOD UREA NITROGEN [1]: 10.67 mg/dL
- CARBON DIOXIDE [1]: 31.33 mmol/L
- CHLORIDE [1]: 100.67 MEQ/L
- CHOLESTEROL [1]: 73 mg/dL
- CREATINE PHOSPHOKINASE [1]: 389.67 u/L
- CREATININE [1]: 0.14 mg/dL
- GLUCOSE [1]: 160 mg/dL
- LACTATE DEHYDROGENASE [1]: 173.67 u/L
- LIPASE [1]: 10.67 u/L
- PHOSPHORUS [1]: 10.57 mg/dL
- POTASSIUM [1]: 5.68 MEQ/L
- SODIUM [1]: 145.67 MEQ/L
- TOTAL BILIRUBIN [1]: 0.1 mg/dL
- TOTAL PROTEIN [1]: 5.87 G/DL
- ABSOLUTE BASOPHIL [2]: 0 CELLS/uL
- ABSOLUTE EOSINOPHIL [2]: 0 CELLS/uL
- ABSOLUTE LYMPHOCYTE [2]: 13332.67 CELLS/uL
- ABSOLUTE MONOCYTE [2]: 32 CELLS/uL
- ABSOLUTE SEGMENTED NEUTROPHIL [2]: 868.67 CELLS/uL
- BASOPHIL [2]: 0%
- EOSINOPHIL [2]: 0%
- ERYTHROCYTE COUNT [2]: 5.39 x10E6/uL
- HEMATOCRIT [2]: 34.6%
- HEMOGLOBIN [2]: 13.63 G/DL
- LEUKOCYTE COUNT [2]: 14.23 x10E3/uL
- LYMPHOCYTE [2]: 93.67%
- MEAN CORPUSCULAR HEMOGLOBIN [2]: 25.3 pg
- MEAN CORPUSCULAR HEMOGLOBIN CONCENTRATION [2]: 39.4 G/DL
- MEAN CORPUSCULAR VOLUME [2]: 64.2 fL
- MONOCYTE [2]: 0.33%
- NEUTROPHIL [2]: 6%
- NUCLEATED RED BLOOD CELLS [2]: 0 /100WBC
- PLATELET COUNT [2]: 1096.33 x10E3/uL
- ALANINE AMINOTRANSFERASE [2]: 59.67 u/L
- ALBUMIN [2]: 3.87 G/DL
- ALKALINE PHOSPHATASE [2]: 376.33 u/L
- ASPARTATE AMINOTRANSFERASE [2]: 89 u/L
- BLOOD UREA NITROGEN [2]: 9.33 mg/dL
- CARBON DIOXIDE [2]: 26.67 mmol/L
- CHLORIDE [2]: 102.5 MEQ/L
- CHOLESTEROL [2]: 65.67 mg/dL
- CREATINE PHOSPHOKINASE [2]: 142.33 u/L
- CREATININE [2]: 0.11 mg/dL
- GLUCOSE [2]: 156 mg/dL
- LACTATE DEHYDROGENASE [2]: 214.33 u/L
- PHOSPHORUS [2]: 10.6 mg/dL
- POTASSIUM [2]: 6.1 MEQ/L
- SODIUM [2]: 145.75 MEQ/L
- TOTAL BILIRUBIN [2]: 0.2 mg/dL
- TOTAL PROTEIN [2]: 5.5 G/DL
- ABSOLUTE BASOPHIL [3]: 0 CELLS/uL
- ABSOLUTE EOSINOPHIL [3]: 0 CELLS/uL
- ABSOLUTE LYMPHOCYTE [3]: 14553.33 CELLS/uL
- ABSOLUTE MONOCYTE [3]: 322.67 CELLS/uL
- ABSOLUTE SEGMENTED NEUTROPHIL [3]: 1290.67 CELLS/uL
- BASOPHIL [3]: 0%
- EOSINOPHIL [3]: 0%
- ERYTHROCYTE COUNT [3]: 5.96 x10E6/uL
- HEMATOCRIT [3]: 37.47%
- HEMOGLOBIN [3]: 14.47 G/DL
- LEUKOCYTE COUNT [3]: 16.17 x10E3/uL
- LYMPHOCYTE [3]: 90.67%
- MEAN CORPUSCULAR HEMOGLOBIN [3]: 24.33 pg
- MEAN CORPUSCULAR HEMOGLOBIN CONCENTRATION [3]: 38.67 G/DL
- MEAN CORPUSCULAR VOLUME [3]: 62.9 fL
- MONOCYTE [3]: 2%
- NEUTROPHIL [3]: 7.33%
- NUCLEATED RED BLOOD CELLS [3]: 0 /100WBC
- PLATELET COUNT [3]: 1137 x10E3/uL
- ALANINE AMINOTRANSFERASE [3]: 40.33 u/L
- ALBUMIN [3]: 4 G/DL
- ALKALINE PHOSPHATASE [3]: 365 u/L
- ASPARTATE AMINOTRANSFERASE [3]: 81.67 u/L
- CARBON DIOXIDE [3]: 28.67 mmol/L
- CHLORIDE [3]: 100 MEQ/L
- CHOLESTEROL [3]: 70.33 mg/dL
- CREATINE PHOSPHOKINASE [3]: 309.67 u/L
- CREATININE [3]: 0.14 mg/dL
- GLUCOSE [3]: 179.33 mg/dL
- LACTATE DEHYDROGENASE [3]: 263 u/L
- LIPASE [3]: 10.67 u/L
- PHOSPHORUS [3]: 11.03 mg/dL
- POTASSIUM [3]: 5.22 MEQ/L
- SODIUM [3]: 145.33 MEQ/L
- TOTAL BILIRUBIN [3]: 0.13 mg/dL
- TOTAL PROTEIN [3]: 6.03 G/DL
